Holding throughout (test): DRaCALA, one-site saturation fit
Holding throughout (format): binding

The target in test [1] is T1, wild-type RNAP with DksA (Sites 1 and 2) (Escherichia coli, UniProt P0A800+P0A8T7+P0ABS1, P0ABS1:K98A).
T1 construct: gene rpoZ; recombinant core RNAP saturated with omega plus saturating purified DksA; with DNA-directed RNA polymerase subunit alpha; DNA-directed RNA polymerase subunit beta

Test [2] concerns the target T2, wild-type RNAP-GreB complex (Escherichia coli, UniProt P0A800+P0A8T7).
T2 construct: gene rpoZ; recombinant core RNAP saturated with omega plus purified GreB; ppGpp at Site 1; with DNA-directed RNA polymerase subunit alpha; DNA-directed RNA polymerase subunit beta; Transcription elongation factor GreB
To be noted: read-out: Kd,app.

Test [3] concerns the target T3, wild-type RNAP (without DksA; Site 1 only) (Escherichia coli, UniProt P0A800+P0A8T7).
T3 construct: gene rpoZ; recombinant core RNAP, alpha, beta, beta' from one plasmid and omega from a second plasmid, omega saturating; with DNA-directed RNA polymerase subunit alpha; DNA-directed RNA polymerase subunit beta
To be noted: read-out: Kd,app.

Test [4] deals with T4, wild-type RNAP-TraR complex (Escherichia coli, UniProt P0A800+P0A8T7).
T4 construct: gene rpoZ; recombinant core RNAP saturated with omega plus purified TraR (encoded by F element); ppGpp at Site 1; with DNA-directed RNA polymerase subunit alpha; DNA-directed RNA polymerase subunit beta; Protein TraR
The note with it: Site 1; TraR present; labelled compound [32P]-ppGpp; unreliable (printed 'at least'; curve did not plateau); non-equilibrium assay.

For test [5], the target named is T5, wild-type RNAP with DksA (Sites 1 and 2) (Escherichia coli, UniProt P0A800+P0A8T7+P0ABS1).
T5 construct: gene rpoZ; recombinant core RNAP saturated with omega plus saturating purified DksA; with DNA-directed RNA polymerase subunit alpha; DNA-directed RNA polymerase subunit beta
To be noted: read-out: Kd,app.

For test [6], the target named is T6, wild-type RNAP with DksA (Sites 1 and 2) (Escherichia coli, UniProt P0A800+P0A8T7+P0ABS1, P0ABS1:R129A).
T6 construct: gene rpoZ; recombinant core RNAP saturated with omega plus saturating purified DksA; with DNA-directed RNA polymerase subunit alpha; DNA-directed RNA polymerase subunit beta

The target in test [7] is T7, wild-type RNAP (without DksA; Site 1 only) (Escherichia coli, UniProt P0A800+P0A8T7, P0A800:DEL2-5).
T7 construct: gene rpoZ; recombinant core RNAP, alpha, beta, beta' from one plasmid and omega from a second plasmid, omega saturating; with DNA-directed RNA polymerase subunit alpha; DNA-directed RNA polymerase subunit beta

The target in test [8] is T8, RNAPΔω (no DksA; lacking Sites 1 and 2) (Escherichia coli, UniProt P0A8T7).
T8 construct: gene rpoC; RNAP lacking omega, purified from a ΔrpoZ strain, no DksA added; with DNA-directed RNA polymerase subunit alpha; DNA-directed RNA polymerase subunit beta
To be noted: read-out: Kd,app.

In test [9] the target is T9, RNAPΔω with DksA (Site 2 only) (Escherichia coli, UniProt P0A8T7+P0ABS1).
T9 construct: gene rpoC; with DNA-directed RNA polymerase subunit alpha; DNA-directed RNA polymerase subunit beta
The note with it: read-out: Kd,app.

Where only a bound is given, the exact number is not on record here.

For the molecule `Nc1nc2c(ncn2[C@@H]2O[C@H](COP(=O)(O)OP(=O)(O)O)[C@@H](OP(=O)(O)OP(=O)(O)O)[C@H]2O)c(=O)[nH]1` [ppGpp, guanosine 5'-diphosphate 3'-diphosphate], the Kd is roughly 1.3 µM in test [1]; roughly 6.4 µM in test [2]; 6.1 ± 1.3 µM in test [3]; 3.3 ± 1.2 µM in test [5]; roughly 1.8 µM in [6]; greater than 100 µM in test [7]. In addition, the Kd in [8] was greater than 100 µM; in test [9], 7.9 ± 1.3 µM. The “Kd,app” value in test [4] was greater than 4.2 ± 0.6 µM.

The values above are taken from article PMC7676912, “Guanosine Tetraphosphate Has a Similar Affinity for Each of Its Two Binding Sites on Escherichia coli RNA Polymerase” (Frontiers in Microbiology, 2020).
